# Experimental data published in publication PMC11500415, “Chemical inhibition of stomatal differentiation by perturbation of the master-regulatory bHLH heterodimer via an ACT-Like domain” (Nature Communications, 2024).
# Where “and” joins values, the source holds several entries; their conditions need not be identical. Equal entries are not always repeated.
# How the values were obtained:
# Type in all cases: cell-based
# SCRM-FAMA heterodimer = biological target: T1, SCRM-FAMA heterodimer (Arabidopsis thaliana, UniProt Q56YJ8); test: Y2H growth and quantitative α-galactosidase assay; conditions: yeast FAMA∆N+SCRM, media -WLH, replicates #1-#3
# T1 construct: truncated SPCH and FAMA proteins lacking their N-terminal domain were used in yeast; expressed in transfected cells; host or cells: yeast strain AH109
# T1 sequence (Q56YJ8 190-414, one chain of several): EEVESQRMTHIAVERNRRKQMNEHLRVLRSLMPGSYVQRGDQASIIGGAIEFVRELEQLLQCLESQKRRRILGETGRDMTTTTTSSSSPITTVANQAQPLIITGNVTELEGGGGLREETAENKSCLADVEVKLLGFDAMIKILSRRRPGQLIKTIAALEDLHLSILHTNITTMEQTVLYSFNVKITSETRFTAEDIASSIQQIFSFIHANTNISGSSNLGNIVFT
# Experimental: (§1) Y2H assays were performed using the Matchmaker^TM Two-Hybrid System (Clontech). Bait (pGBKT7) and prey (pGADT7) constructs were co-transformed into the yeast strain AH109 using Frozen-EZ Yeast Transformation II Kit (Zymo Research, T2001). The resulting transformants were spotted on SD ( − Leu, −Trp) and SD ( − Trp, −Leu, −His) selection media containing different concentrations of 3-amino-1,2,4-triazole (Sigma, A8056) as previously reported. Quantitative α-galactosidase assay was also performed according to manufactural instruction (Clontech). Briefly, the transformants were incubated in 2 ml SD medium with 0, 10, 50 100 μM Stomidazolone (3) or SIM3* (7) with rotary shake (220 rpm) at 30 °C overnight. The cultured media containing yeast were transferred to microtubes and centrifuged to obtain the supernatant. The colorimetric assay was performed by incubating 8 μL of supernatant with 24 μL Assay Buffer that contains 0.5 M sodium acetate (pH 4.5) (Nakalai tesque, 31137-25): 100 mM p-nitrophenyl α-D-Galactopyranoside Solution (Sigma N0877) = 2:1 (v/v) at 30 °C for 60 min, then terminated by adding 960 μL 1X Stop Solution (0.1 M sodium carbonate, Fujifilm Wako 195-01582). After OD410 was recorded, α-galactosidase units were calculated according to the protocol (Clontech, P3024-1).
# SCRM-MUTE heterodimer = biological target: T2, SCRM-MUTE heterodimer (Arabidopsis thaliana, UniProt Q9M8K6); test: Y2H growth and quantitative α-galactosidase assay; conditions: yeast MUTE+SCRM, media -WLH, replicates #1-#3
# T2 construct: expressed in transfected cells; host or cells: yeast strain AH109
# T2 sequence (Q9M8K6 1-202): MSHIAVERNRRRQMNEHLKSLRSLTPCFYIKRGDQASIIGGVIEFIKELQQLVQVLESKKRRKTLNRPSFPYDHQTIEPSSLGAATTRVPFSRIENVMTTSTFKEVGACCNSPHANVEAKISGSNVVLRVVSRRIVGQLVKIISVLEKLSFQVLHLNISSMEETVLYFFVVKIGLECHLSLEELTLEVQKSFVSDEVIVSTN
# Experimental: as §1
# SCRM-SPCH heterodimer = biological target: T3, SCRM-SPCH heterodimer (Arabidopsis thaliana, UniProt Q700C7); test: Y2H growth and quantitative α-galactosidase assay; conditions: yeast SPCH∆N+SCRM, media -WLH, replicates #1-#3
# T3 construct: truncated SPCH and FAMA proteins lacking their N-terminal domain were used in yeast; expressed in transfected cells; host or cells: yeast strain AH109
# T3 sequence (Q700C7 98-364 limits assumed): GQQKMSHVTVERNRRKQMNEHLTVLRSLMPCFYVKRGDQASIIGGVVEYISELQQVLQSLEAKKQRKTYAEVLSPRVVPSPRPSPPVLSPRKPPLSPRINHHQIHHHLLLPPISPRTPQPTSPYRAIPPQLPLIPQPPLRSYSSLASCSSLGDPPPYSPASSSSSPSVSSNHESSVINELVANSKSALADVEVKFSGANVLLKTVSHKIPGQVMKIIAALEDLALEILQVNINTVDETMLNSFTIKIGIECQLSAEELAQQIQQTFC
# Experimental: as §1
# MUTE+AD (control yeast) = biological target: T4, MUTE+AD (control yeast) (Arabidopsis thaliana, UniProt Q9M8K6); test: Y2H quantitative α-galactosidase assay, control yeast MUTE+AD; conditions: media -WL, replicates #1-#3
# T4 construct: expressed in transfected cells; host or cells: yeast strain AH109
# T4 sequence (Q9M8K6 1-202): T2 sequence (Q9M8K6 1-202)
# Excerpt: Supplement 41467_2024_53214_MOESM7_ESM.xlsx, sheet "Fig.S5" | column: Meristemoid
# DB+SCRM (control yeast) = biological target: T5, DB+SCRM (control yeast) (Arabidopsis thaliana, UniProt Q9LSE2); test: Y2H quantitative α-galactosidase assay, control yeast DB+SCRM; conditions: media -WL, replicates #1-#3
# T5 construct: expressed in transfected cells; host or cells: yeast strain AH109
# T5 sequence (Q9LSE2 1-494): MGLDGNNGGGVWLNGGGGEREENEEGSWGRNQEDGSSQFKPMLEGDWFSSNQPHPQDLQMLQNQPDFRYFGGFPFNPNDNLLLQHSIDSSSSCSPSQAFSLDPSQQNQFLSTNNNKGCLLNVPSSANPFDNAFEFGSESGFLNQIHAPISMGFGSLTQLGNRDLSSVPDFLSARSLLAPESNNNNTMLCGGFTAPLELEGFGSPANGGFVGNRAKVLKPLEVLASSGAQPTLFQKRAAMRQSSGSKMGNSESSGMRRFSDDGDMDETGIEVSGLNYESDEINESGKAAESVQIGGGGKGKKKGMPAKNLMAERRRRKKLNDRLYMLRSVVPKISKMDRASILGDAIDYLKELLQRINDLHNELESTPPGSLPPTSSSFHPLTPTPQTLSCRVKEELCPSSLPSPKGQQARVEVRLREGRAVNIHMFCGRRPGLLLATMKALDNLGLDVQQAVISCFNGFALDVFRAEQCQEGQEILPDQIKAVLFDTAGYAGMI
structure (smiles),measurement,setting,value
Cc1nc(-c2ccccc2)c(NS(=O)(=O)c2ccccc2)o1 [SIM3*],a-galactosidase,SCRM-FAMA heterodimer; 10 µM,9.596 milliunits /(ml x cell) and 8.612 milliunits /(ml x cell) and 10.2528 milliunits /(ml x cell)
same,a-galactosidase,SCRM-FAMA heterodimer; 50 µM,8.883 milliunits /(ml x cell) and 8.135 milliunits /(ml x cell) and 9.605 milliunits /(ml x cell)
same,a-galactosidase,SCRM-FAMA heterodimer; 100 µM,8.9516 milliunits /(ml x cell) and 9.181 milliunits /(ml x cell) and 8.943 milliunits /(ml x cell)
same,a-galactosidase,SCRM-MUTE heterodimer; 10 µM,6.318 milliunits /(ml x cell) and 6.221 milliunits /(ml x cell) and 6.24 milliunits /(ml x cell)
same,a-galactosidase,SCRM-MUTE heterodimer; 50 µM,7.176 milliunits /(ml x cell) and 6.898 milliunits /(ml x cell) and 6.187 milliunits /(ml x cell)
same,a-galactosidase,SCRM-MUTE heterodimer; 100 µM,6.801 milliunits /(ml x cell) and 6.285 milliunits /(ml x cell) and 6.027 milliunits /(ml x cell)
same,a-galactosidase,SCRM-SPCH heterodimer; 10 µM,4.934 milliunits /(ml x cell) and 5.0596 milliunits /(ml x cell) and 4.687 milliunits /(ml x cell)
same,a-galactosidase,SCRM-SPCH heterodimer; 50 µM,4.693 milliunits /(ml x cell) and 5.268 milliunits /(ml x cell) and 5.059 milliunits /(ml x cell)
same,a-galactosidase,SCRM-SPCH heterodimer; 100 µM,6.071 milliunits /(ml x cell) and 5.524 milliunits /(ml x cell) and 5.145 milliunits /(ml x cell)
same,a-galactosidase,MUTE+AD (control yeast); 10 µM,0.05913 milliunits /(ml x cell) and 0.1128 milliunits /(ml x cell) and 0.06646 milliunits /(ml x cell)
same,a-galactosidase,MUTE+AD (control yeast); 50 µM,0.06252 milliunits /(ml x cell) and 0.06546 milliunits /(ml x cell) and 0.1442 milliunits /(ml x cell)
same,a-galactosidase,MUTE+AD (control yeast); 100 µM,0.1449 milliunits /(ml x cell) and 0.1698 milliunits /(ml x cell) and 0.1689 milliunits /(ml x cell)
same,a-galactosidase,DB+SCRM (control yeast); 10 µM,0.04682 milliunits /(ml x cell) and 0.1024 milliunits /(ml x cell) and 0.1038 milliunits /(ml x cell)
same,a-galactosidase,DB+SCRM (control yeast); 50 µM,0.1114 milliunits /(ml x cell) and 0.04747 milliunits /(ml x cell) and 0.1243 milliunits /(ml x cell)
same,a-galactosidase,DB+SCRM (control yeast); 100 µM,0.1293 milliunits /(ml x cell) and 0.1919 milliunits /(ml x cell) and 0.06561 milliunits /(ml x cell)
